Columns and labels:
SK-OV-3 = assay: NCI 60-cell drug screen, Ovarian Cancer SK-OV-3; type: cell-based, human; settings: 1.00E−5 Molar
T-47D = assay: NCI 60-cell drug screen, Breast Cancer T-47D; type: cell-based, human; settings: 1.00E−5 Molar
U251 = assay: NCI 60-cell drug screen, CNS Cancer U251; type: cell-based, human; settings: 1.00E−5 Molar
HCC-2998 = assay: NCI 60-cell drug screen, Colon Cancer HCC-2998; type: cell-based, human; settings: 1.00E−5 Molar
[1] = system: 60 kinds of different human cancer cells; assay: NCI 60-cell drug screen, whole panel (One Dose Mean Graph); type: cell-based; settings: mean over the cell lines of the panel; 1.00E−5 Molar
HS 578T = assay: NCI 60-cell drug screen, Breast Cancer HS 578T; type: cell-based, human; settings: 1.00E−5 Molar
SVG p12 = assay: MTT assay, SVG p12 normal cell; settings: concentration 10 μM, normal cell
DU-145 = assay: NCI 60-cell drug screen, Prostate Cancer DU-145; type: cell-based, human; settings: 1.00E−5 Molar
HT29 = assay: NCI 60-cell drug screen, Colon Cancer HT29; type: cell-based, human; settings: 1.00E−5 Molar
GBM8401 = assay: MTT assay, GBM8401 tumor cell; settings: concentration 10 μM, tumor cell
SF-295 = assay: NCI 60-cell drug screen, CNS Cancer SF-295; type: cell-based, human; settings: 1.00E−5 Molar
MDA-MB-231/ATCC = assay: NCI 60-cell drug screen, Breast Cancer MDA-MB-231/ATCC; type: cell-based, human; settings: 1.00E−5 Molar
OVCAR-3 = assay: NCI 60-cell drug screen, Ovarian Cancer OVCAR-3; type: cell-based, human; settings: 1.00E−5 Molar
HCT-15 = assay: NCI 60-cell drug screen, Colon Cancer HCT-15; type: cell-based, human; settings: 1.00E−5 Molar
MOLT-4 = assay: NCI 60-cell drug screen, Leukemia MOLT-4; type: cell-based, human; settings: 1.00E−5 Molar
UO-31 = assay: NCI 60-cell drug screen, Renal Cancer UO-31; type: cell-based, human; settings: 1.00E−5 Molar
SR = assay: NCI 60-cell drug screen, Leukemia SR; type: cell-based, human; settings: 1.00E−5 Molar
MCF7 = assay: NCI 60-cell drug screen, Breast Cancer MCF7; type: cell-based, human; settings: 1.00E−5 Molar
786-0 = assay: NCI 60-cell drug screen, Renal Cancer 786-0; type: cell-based, human; settings: 1.00E−5 Molar
MALME-3M = assay: NCI 60-cell drug screen, Melanoma MALME-3M; type: cell-based, human; settings: 1.00E−5 Molar
OVCAR-8 = assay: NCI 60-cell drug screen, Ovarian Cancer OVCAR-8; type: cell-based, human; settings: 1.00E−5 Molar
MDA-MB-468 = assay: NCI 60-cell drug screen, Breast Cancer MDA-MB-468; type: cell-based, human; settings: 1.00E−5 Molar
CAKI-1 = assay: NCI 60-cell drug screen, Renal Cancer CAKI-1; type: cell-based, human; settings: 1.00E−5 Molar
MDA-MB-435 = assay: NCI 60-cell drug screen, Melanoma MDA-MB-435; type: cell-based, human; settings: 1.00E−5 Molar
M14 = assay: NCI 60-cell drug screen, Melanoma M14; type: cell-based, human; settings: 1.00E−5 Molar
[2] = system: SVG p12, GBM8401 and GBM8901; assay: MTT assay, normal cell versus tumor cells (categories 39-3 to 39-7); settings: tumor cell survival rate less than 80%; FIG. 5A

For `O=C1c2ccccc2C(=O)c2c1ccc1nc(S)[nH]c21` [f1-0, 2-Mercapto-1(3)H-anthra[1,2-d]imidazole-6,11-dione], the “Growth Percent, SK-OV-3” value (SK-OV-3) was 103.17%, the “Growth Percent, T-47D” value (T-47D) was 81.86% and the “Growth Percent, U251” value (U251) was 88.79%. The “Growth Percent, HCC-2998” value (HCC-2998) was 113.65%, the “Growth Percent, Mean” value [1] was 99.72% and the “Growth Percent, HS 578T” value (HS 578T) was 103.53%. For the same molecule, the “Cell survival rate (%) SVG p12” value (SVG p12) was 82 ± 5%, the “Growth Percent, DU-145” value (DU-145) was 99.28% and the “Growth Percent, HT29” value (HT29) was 103.79%. The “Cell survival rate (%) GBM8401” value (GBM8401) was 86 ± 25%, the “Growth Percent, SF-295” value (SF-295) was 118.09% and the “Growth Percent, MDA-MB-231/ATCC” value (MDA-MB-231/ATCC) was 108.18%. The “Growth Percent, OVCAR-3” value (OVCAR-3) was 86.94%, the “Growth Percent, HCT-15” value (HCT-15) was 83.78% and the “Growth Percent, MOLT-4” value (MOLT-4) was 108.60%. The “Growth Percent, UO-31” value (UO-31) was 97.83%, the “Growth Percent, SR” value (SR) was 124.87% and the “Growth Percent, MCF7” value (MCF7) was 75.91%. The “Growth Percent, 786-0” value (786-0) was 95.78%, the “Growth Percent, MALME-3M” value (MALME-3M) was 87.50% and the “Growth Percent, OVCAR-8” value (OVCAR-8) was 139.75%. The “Growth Percent, MDA-MB-468” value (MDA-MB-468) was 87.69%, the “Growth Percent, CAKI-1” value (CAKI-1) was 91.23% and the “Growth Percent, MDA-MB-435” value (MDA-MB-435) was 114.02%. For the same molecule, the “Growth Percent, M14” value (M14) was 101.06%.

For `CCSc1nc2ccc3c(c2[nH]1)C(=O)c1ccccc1C3=O` [f1-1, 2-(Ethylthio)-1H-anthra[1,2-d]imidazole-6,11-dione], the “Growth Percent, SK-OV-3” value (SK-OV-3) was 24.72%, the “Growth Percent, T-47D” value (T-47D) was 30.78% and the “Growth Percent, U251” value (U251) was 65.03%. For the same molecule, the “Growth Percent, HCC-2998” value (HCC-2998) was 89.42%, the “Growth Percent, Mean” value [1] was 67.96% and the “Growth Percent, HS 578T” value (HS 578T) was 85.44%. For the same molecule, the “Cell survival rate (%) SVG p12” value (SVG p12) was 98 ± 8%, the “Growth Percent, DU-145” value (DU-145) was 64.51% and the “Growth Percent, HT29” value (HT29) was 75.18%. The “Cell survival rate (%) GBM8401” value (GBM8401) was 42 ± 20%, the “Growth Percent, SF-295” value (SF-295) was 100.85% and the “Growth Percent, MDA-MB-231/ATCC” value (MDA-MB-231/ATCC) was 84.79%. The “Growth Percent, OVCAR-3” value (OVCAR-3) was 69.27%, the “Growth Percent, HCT-15” value (HCT-15) was 32.29% and the “category 39-3: survival rate higher than 80% for normal cell SVG p12 and inhibits growth of both tumor cells GBM8401 and GBM8901” value [2] was “in this category”. The “Growth Percent, MOLT-4” value (MOLT-4) was 100.70%, the “Growth Percent, UO-31” value (UO-31) was 49.19% and the “Growth Percent, SR” value (SR) was 129.31%. For the same molecule, the “Growth Percent, MCF7” value (MCF7) was 43.81%, the “Growth Percent, 786-0” value (786-0) was 85.38% and the “Growth Percent, MALME-3M” value (MALME-3M) was 63.33%. For the same molecule, the “Growth Percent, OVCAR-8” value (OVCAR-8) was 96.82%, the “Growth Percent, MDA-MB-468” value (MDA-MB-468) was 35.36% and the “Growth Percent, CAKI-1” value (CAKI-1) was −8.01%. For the same molecule, the “Growth Percent, MDA-MB-435” value (MDA-MB-435) was 68.42% and the “Growth Percent, M14” value (M14) was 67.07%.

In the case of `CCCSc1nc2ccc3c(c2[nH]1)C(=O)c1ccccc1C3=O` [f1-2, 2-(propylthio)-1H-anthra[1,2-d]imidazole-6,11-dione], the “Growth Percent, SK-OV-3” value (SK-OV-3) was 38.92%, the “Growth Percent, T-47D” value (T-47D) was 53.72% and the “Growth Percent, U251” value (U251) was 62.95%. The “Growth Percent, HCC-2998” value (HCC-2998) was 81.92%, the “Growth Percent, Mean” value [1] was 60.02% and the “Growth Percent, HS 578T” value (HS 578T) was 33.33%. The “Cell survival rate (%) SVG p12” value (SVG p12) was 99%, the “Growth Percent, DU-145” value (DU-145) was 69.29% and the “Growth Percent, HT29” value (HT29) was 75.10%. For the same molecule, the “Cell survival rate (%) GBM8401” value (GBM8401) was 62 ± 18%, the “Growth Percent, SF-295” value (SF-295) was 37.25% and the “Growth Percent, MDA-MB-231/ATCC” value (MDA-MB-231/ATCC) was 26.44%. For the same molecule, the “Growth Percent, OVCAR-3” value (OVCAR-3) was 62.71%, the “Growth Percent, HCT-15” value (HCT-15) was 67.65% and the “category 39-3: survival rate higher than 80% for normal cell SVG p12 and inhibits growth of both tumor cells GBM8401 and GBM8901” value [2] was “in this category”. The “Growth Percent, MOLT-4” value (MOLT-4) was 68.13%, the “Growth Percent, UO-31” value (UO-31) was 24.49% and the “Growth Percent, SR” value (SR) was 71.03%. For the same molecule, the “Growth Percent, MCF7” value (MCF7) was 58.97%, the “Growth Percent, 786-0” value (786-0) was 21.82% and the “Growth Percent, MALME-3M” value (MALME-3M) was 88.24%. For the same molecule, the “Growth Percent, OVCAR-8” value (OVCAR-8) was 44.68%, the “Growth Percent, CAKI-1” value (CAKI-1) was 45.47% and the “Growth Percent, MDA-MB-435” value (MDA-MB-435) was 77.38%. The “Growth Percent, M14” value (M14) was 89.99%.
